EP0973746B1, “SUBSTITUTED 3-CYANO QUINOLINES” (Wyeth Holdings Corporation, priority 1997, dated 1998)
Converted amounts (≈) assume the structure as drawn. “And” between values parts separate entries of the source, which are not always exact repeats. Equal values may be shown once. Read-outs that look alike come from different tables or passages of the source.

What was measured:
[1] = test system: SW620; assay: Inhibition of cancer cell growth as measured by cell number, SW620; type: cell-based, human; settings: for IC50: Homo sapiens, SW-620, 48 h;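 for all read-outs here: SW620 was included as a cell line with little or no EGFR or HER2/neu expression, in contrast to receptor-overexpressing lines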
Text: (§1) The cell lines were chosen since they overexpressed epidermal growth factor receptor (EGFR) (i.e. A431) or HER2/neu (SKBR3), or had little to no expression of the these receptors (SW620, LOX, MCF7).

[2] = test system: SKBR3; assay: Inhibition of cancer cell growth as measured by cell number, SKBR3; type: cell-based, human; settings: for IC50: Homo sapiens;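 for all read-outs here: SK-BR-3 cells were selected as a line overexpressing HER2/neu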
Text: as §1

[3] = test system: MCF7; assay: Inhibition of cancer cell growth as measured by cell number, MCF7; type: cell-based, human; settings: Table 8; for IC50: Homo sapiens, MCF7, 48 h, read-out: IC50 MCF7, cell number, Sulforhodamine B, 48 hours exposure; for IC50 MCF7: cell number, Sulforhodamine B, 48 hours exposure;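 for all read-outs here: MCF7 was included as a line with little or no EGFR or HER2/neu expression, in contrast to the receptor-overexpressing lines of the panel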
Text: as §1

[4] = molecular target: T1, His-tagged cytoplasmic domain of EGFR (Homo sapiens, UniProt P00533); assay: Inhibition of Epidermal Growth Factor Receptor Kinase (EGF-R) using recombinant enzyme; type: biochemical;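 note: radiometric kinase assay measuring radiolabeled phosphate transfer from ATP onto the peptide tyrosine by scintillation counting, control is reaction without compound, background subtracted, IC50 from dose-response curve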
T1 construct: containing the EGFR cDNA encoding amino acids 645 - 1186 preceded by Met-Ala-(His)6; made in house; host or cells: Sf9 cells, recombinant baculovirus vHcEGFR52
T1 sequence (P00533 669-1210): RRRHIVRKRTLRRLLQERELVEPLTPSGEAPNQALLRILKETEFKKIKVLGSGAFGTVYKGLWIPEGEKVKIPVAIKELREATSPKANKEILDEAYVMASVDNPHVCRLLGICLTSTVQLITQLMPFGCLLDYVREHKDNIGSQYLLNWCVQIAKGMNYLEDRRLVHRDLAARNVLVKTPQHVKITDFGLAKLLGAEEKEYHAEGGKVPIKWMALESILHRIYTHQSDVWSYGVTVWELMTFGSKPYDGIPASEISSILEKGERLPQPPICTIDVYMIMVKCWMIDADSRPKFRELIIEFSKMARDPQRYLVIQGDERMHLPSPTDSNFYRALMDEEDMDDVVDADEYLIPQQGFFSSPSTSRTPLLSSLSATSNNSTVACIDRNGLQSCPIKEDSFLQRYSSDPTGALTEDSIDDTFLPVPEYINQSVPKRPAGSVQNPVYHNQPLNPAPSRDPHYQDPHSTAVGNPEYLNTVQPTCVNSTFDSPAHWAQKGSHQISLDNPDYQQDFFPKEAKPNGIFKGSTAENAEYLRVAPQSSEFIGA

[5] = molecular target: recombinant human MEK 1 (MAPKK) and recombinant human ERK2 (MAPK); assay: Mitogen Activated Protein Kinase (MAPK) assay, two component coupled MEK 1 / ERK2; type: biochemical; settings: separate entries for the same compound = evaluated more than one time;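 note: MEK 1-activated ERK2 phosphorylates MBP or Myc peptide with 33P-ATP, filter capture and scintillation counting, inhibitor preincubated with ERK2 30 min at 0 °C, inhibition relative to uninhibited control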
[6] = test system: A431; assay: Inhibition of cancer cell growth as measured by cell number, A431; type: cell-based, human; settings: for IC50: Homo sapiens, A-431, 48 h;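 for all read-outs here: human A431 line, picked because it overexpresses epidermal growth factor receptor (EGFR)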
Text: as §1

[7] = test system: LOX; assay: Inhibition of cancer cell growth as measured by cell number, LOX; type: cell-based, human; settings: Table 8; for IC50: Homo sapiens, LOX, 48 h, read-out: IC50 LOX, cell number, Sulforhodamine B, 48 hours exposure;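 for all read-outs here: LOX cells served as a line with low or absent EGFR and HER2/neu expression, in contrast to receptor-overexpressing lines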
Text: as §1

[8] = read-out: IC50 SW620, cell number, Sulforhodamine B, 48 hours exposure, Table 8
[9] = SK-BR-3, 48 h, read-out: IC50 SKBR3, cell number, Sulforhodamine B, 48 hours exposure, Table 8
[10] = cell number, Sulforhodamine B, 48 hours exposure, Table 8, read-out: IC50 SW620
[11] = recombinant enzyme, RR-SRC peptide, average of the number of tests, read-out: IC50
[12] = SK-BR-3, cell number, Sulforhodamine B, 48 hours exposure, Table 8, read-out: IC50 SKBR3
[13] = cell number, Sulforhodamine B, 48 hours exposure, Table 8, read-out: IC50 A431
[14] = read-out: IC50 A431, cell number, Sulforhodamine B, 48 hours exposure, Table 8
[15] = cell number, Sulforhodamine B, 48 hours exposure, Table 8

IC50 [1, 10] [µg/mL]	IC50 [2, 12] [µg/mL]	IC50 [6, 13] [µg/mL]	SMILES	IC50 [1, 8] [µg/mL]	IC50 [2, 9] [µg/mL]	IC50 [4, 11] [nM]	IC50 [5]	IC50 [6, 14] [µg/mL]	other results
			COc1cc2ncc(C#N)c(Nc3cccc(F)c3)c2cc1OC [Example 35, 4-[(3-Fluorophenyl)amino]-6,7-dimethoxy-3-quinolinecarbonitrile]	6.4 (≈ 19.8 µM)	0.93 (≈ 2.88 µM)				IC50 ([1]; read-out: IC50 SW620, cell number, Sulforhodamine B, 48 hours exposure, Table 4): 9.57 µg/mL (≈ 29.6 µM); IC50 [3]: 40.9 µg/mL (≈ 126 µM)
0.208 (≈ 0.51 µM)	0.144 (≈ 0.353 µM)	0.095 (≈ 0.233 µM)	CCOc1cc2ncc(C#N)c(NCc3ccc(OC)c(OC)c3)c2cc1OCC [Example 63, 4-(3,4-Dimethoxyphenylmethylamino)-6,7-diethoxy-3-quinolinecarbonitrile]			≥ 10000	> 100000 nM		
> 10	> 10	> 10	CNCC=CC(=O)Nc1ccc2ncc(C#N)c(Nc3cccc(Br)c3)c2c1 [Example 101, 4-Methylamino-but-2-enoic acid [4-(3-bromophenylamino)-3-cyano-quinolin-6-yl]-amide]			100	20000 nM		
			CN(C)Cc1cc(N)cc2c(Nc3cccc(Br)c3)c(C#N)cnc12 [Example 109, 6-Amino-4-[(3-bromophenyl)amino]-8-dimethylaminomethyl-3-quinolinecarbonitrile]	40.8 (≈ 103 µM)	30.7 (≈ 77.4 µM)			38.9 (≈ 98 µM)	IC50 [7]: 35.1 µg/mL (≈ 88.5 µM); IC50 [3]: 37.9 µg/mL (≈ 95.7 µM)
			CC#CC(=O)Nc1cc(CN(C)C)c2ncc(C#N)c(Nc3cccc(Br)c3)c2c1 [Example 110, N-{4-[(3-Bromophenyl)amino]-3-cyano-8-dimethylaminomethyl-6-quinolinyl} -2-butynamide]	0.7 (≈ 1.51 µM)	1.3 (≈ 2.81 µM)		40000 nM	0.9 (≈ 1.95 µM)	IC50 [7]: 0.8 µg/mL (≈ 1.73 µM)
			COc1cccc(Nc2c(C#N)cnc3ccc(NC(=O)C#CCN4CCCCC4)cc23)c1 [Example 140, N-{3-cyano-4-[(3-methoxyphenyl)amino]-6-quinolinyl}-4-piperidino-2-butynamide]	0.1 (≈ 0.228 µM)	0.02 (≈ 0.0455 µM)	0.6	> 100000 nM	0.02 (≈ 0.0455 µM)	
0.6 (≈ 1.33 µM)	0.03 (≈ 0.0664 µM)	0.03 (≈ 0.0664 µM)	CCN(CC)CC=CC(=O)Nc1ccc2ncc(C#N)c(Nc3ccc(F)c(Cl)c3)c2c1 [Example 146, N-{4-[(3-Chloro-4-fluorophenyl)amino]-3-cyano-6-quinoliny}-4-diethylamino-2-butenamide]			30	6000 nM		
			CC#CC(=O)Nc1ccc2ncc(C#N)c(Nc3ccc(Sc4ccccc4)c(Cl)c3)c2c1 [Example 157]	4.17 (≈ 8.89 µM)	2.6 (≈ 5.55 µM)	45	90000 nM	3.26 (≈ 6.95 µM)	
			C=CC(=O)Nc1ccc2ncc(C#N)c(Nc3cccc(C#N)c3)c2c1 [Example 160, N-[3-Cyano-4-[(3-cyanophenyl)amino]-6-quinolinyl}-2-propenamide]	2.3 (≈ 6.78 µM)	0.5 (≈ 1.47 µM)	2	30000 nM	0.2 (≈ 0.589 µM)	
			N#Cc1cccc(Nc2c(C#N)cnc3ccc(NC(=O)C#CCN4CCCCC4)cc23)c1 [Example 161, N-{3-Cyano-4-[(3-cyanophenyl)amino]-6-quinolinyl}-4-piperidino-2-butynamide]	0.2 (≈ 0.46 µM)	0.04 (≈ 0.0921 µM)	0.35	55000 nM	0.1 (≈ 0.23 µM)	
			C#Cc1cccc(Nc2c(C#N)cnc3ccc(NC(=O)C#CCN4CCCCC4)cc23)c1 [Example 166, N-{3-cyano-4-[(3-ethynylphenyl)amino]-6-quinolinyl)-4-piperidino-2-butynamide]	0.04 (≈ 0.0923 µM)	0.02 (≈ 0.0461 µM)	20	> 100000 nM	0.02 (≈ 0.0461 µM)	
			CCCN(CC#CC(=O)Nc1ccc2ncc(C#N)c(Nc3cccc(Br)c3)c2c1)CCC [Example 170]			60	> 100000 nM		IC50 SW620 [1]: 0.1 µg/mL (≈ 0.198 µM); IC50 SKBR3 [2]: 0.03 µg/mL (≈ 0.0595 µM); IC50 A431 [6]: 0.03 µg/mL (≈ 0.0595 µM)
1.59 (≈ 3.4 µM)	0.067 (≈ 0.143 µM)	0.255 (≈ 0.544 µM)	CN(C)CC=CC(=O)Nc1ccc2ncc(C#N)c(Nc3ccc(F)c(Br)c3)c2c1 [Example 172, N-{4-[(3-Bromo-4-fluorophenyl)amino]-3-cyano-6-quinolinyl} -4-dimethylamino-2-butenamide]			5	90000 nM		
			CN(C)C/C=C\C(=O)Nc1ccc2ncc(C#N)c(Nc3ccc(F)c(Cl)c3)c2c1 [Example 184, N-[4-[(3-Chloro-4-fluorophenyl)amino]-3-cyano-6-quinolinyl]-4-dimethylamino-(Z)-2-butenamide]	0.463 (≈ 1.09 µM)	0.3 (≈ 0.708 µM)	1700		0.158 (≈ 0.373 µM)	
2.18 (≈ 5.31 µM)	1.11 (≈ 2.7 µM)	0.34 (≈ 0.828 µM)	COC/C=C\C(=O)Nc1ccc2ncc(C#N)c(Nc3ccc(F)c(Cl)c3)c2c1 [Example 185, N-[4-[(3-Chloro-4-fluorophenyl)amino]-3-cyano-6-quinolinyl]-4-methoxy-(Z)-2-butenamide]			≥ 10000			
			CCN1CCN(CC#CC(=O)Nc2ccc3ncc(C#N)c(Nc4cccc(Br)c4)c3c2)CC1 [Example 188, N-[4-[(3-Bromophenyl)amino]-3-cyano-6-quinolinyl]-4-(N-ethylpiperazino)-2-butynamide]			1		0.54 (≈ 1.04 µM)	IC50 A431 [6, 15]: 0.4 µg/mL and 0.579 µg/mL; IC50 [3]: 1.43 µg/mL (≈ 2.76 µM); IC50 MCF7 [3]: 0.8 µg/mL (≈ 1.55 µM)
			CCN(CC)CC#CC(=O)Nc1ccc2ncc(C#N)c(Nc3ccc(F)c(Cl)c3)c2c1 [Example 189, N-[4-[(3-Chloro-4-fluorophenyl)amino]-3-cyano-6-quinolinyl]-4-diethylamino-2-butynamide]	0.1 (≈ 0.222 µM)	0.03 (≈ 0.0667 µM)	2	50000 nM	0.04 (≈ 0.0889 µM)	
			COCC#CC(=O)Nc1ccc2ncc(C#N)c(Nc3ccc(F)c(Cl)c3)c2c1 [Example 194, N-[4-[-(3-Chloro-4-fluorophenyl)amino]-3-cyano-6-quinolinyl]-4-methoxy-2-butynamide]	0.2 (≈ 0.489 µM)	0.2 (≈ 0.489 µM)	1.7	> 100000 nM	0.1 (≈ 0.245 µM)	
			COc1cc2ncc(C#N)c(Nc3cccc(Br)c3)c2cc1NC(=O)C=CCN(C)C [Example 198, 4-Dimethylamino-but-2-enoic acid [4-(3-brom-phenylamino)-3-cyano-7-methoxy-quinolin-6yl]-amide]						IC50 SW620 [1, 15]: 0.4 µg/mL (≈ 0.833 µM); IC50 [4]: 0.008 nM; IC50 SKBR3 [2, 15]: 0.03 µg/mL (≈ 0.0625 µM); IC50 A431 [6, 15]: 0.002 µg/mL (≈ 0.00416 µM)
0.433 (≈ 0.852 µM)	0.076 (≈ 0.149 µM)	0.048 (≈ 0.0944 µM)	CCN(CC)CC=CC(=O)Nc1cc2c(Nc3cccc(Br)c3)c(C#N)cnc2cc1OC [Example 199, 4-Diethylamino-but-2-enoic acid [4-(3-bromo-phenylamino)-3-cyano-7-methoxy-quinolin-6-yl]-amide]			0.5			
			CCN(CC)CC=CC(=O)Nc1cc2c(Nc3ccc(F)c(Br)c3)c(C#N)cnc2cc1OC [Example 209, 4-Diethylamino-but-2-enoic acid [4-(3-bromo-4-fluorophenylamino)-3-cyano-7-methoxy-quinolin-6-yl]-amide]	0.38 (≈ 0.722 µM)	0.048 (≈ 0.0912 µM)	5	9000 nM	0.113 (≈ 0.215 µM)	
			COc1cc2ncc(C#N)c(Nc3cccc(Br)c3)c2cc1NC(=O)C#CCN(C)C [Example 227, 4-Dimethylamino-but-2-ynoic acid [4-(3-bromo-phenylamino)-3-cyano-7-methoxy-quinol-6-yl]-amide]	0.1 (≈ 0.209 µM)	0.2 (≈ 0.418 µM)	10		0.02 (≈ 0.0418 µM)	
			CCOc1cc2ncc(C#N)c(N(C)c3ccccc3)c2cc1OCC [Example 258, 4-(N-Methylphenylamino)-6,7-diethoxy-3-quinolinecarbonitrile]					4.67 (≈ 13.4 µM)	IC50 [7]: 6.12 µg/mL (≈ 17.6 µM); IC50 LOX ([7]; cell number, Sulforhodamine B, 48 hours exposure): 10.72 µg/mL (≈ 30.9 µM); IC50 A431 [6, 15]: 5.42 µg/mL (≈ 15.6 µM); IC50 [3]: 7.87 µg/mL (≈ 22.7 µM); IC50 MCF7 [3]: 9.69 µg/mL (≈ 27.9 µM)
			COCCOc1cc2ncc(C#N)c(Nc3cccc(Br)c3)c2cc1OCCOC [Example 311, 4-[(3-Bromophenyl)amino]-6,7-bis(2-methoxyethoxy)-3-quinolinecarbonitrile]	1 (≈ 2.12 µM)	0.7 (≈ 1.48 µM)		2000 nM and 2500 nM		IC50 [7]: 2.8 µg/mL (≈ 5.93 µM)
3.53 (≈ 7.88 µM)	2.25 (≈ 5.03 µM)	0.491 (≈ 1.09 µM)	COc1cc2c(Nc3ccc(O)cc3C)c(C#N)cnc2cc1OCCCN1CCOCC1 [Example 312, 4-(4-Hydroxy-2-methyl-phenylamino)-6-methoxy-7-(3-morpholin-4-yl-propoxy)-quinoline-3-carbonitrile]			50	> 100000 nM		
0.2 (≈ 0.424 µM)	0.2 (≈ 0.424 µM)	0.04 (≈ 0.0848 µM)	COc1cc2ncc(C#N)c(Nc3cccc(Br)c3)c2cc1NC(=O)C=CCCl [Example 347, N-{4-[(3-Bromophenyl)amino]-3-cyano-7-methoxy-6-quinolinyl} -4-chloro-2-butenamide]			40			
